# Laboratory results reported in ChEMBL document CHEMBL4627384, “l-Thyroxin and the Nonclassical Thyroid Hormone TETRAC Are Potent Activators of PPARγ” (J Med Chem, 2020).
# Active and inactive are the calls of the source. No cut-off for these calls is given here.
# Tests used:
# [1] = target: T1, Peroxisome proliferator-activated receptor gamma (Homo sapiens) (UniProt P37231); assay: Agonist activity at PPARgamma in human HepG2 cells assessed as induction of CD36 mRNA expression at 30 uM incubated for 8 hrs in presence of PPARgamma antagonist GW9662 by qPCR analysis; assay type: cell-based
# T1 sequence (whole entry): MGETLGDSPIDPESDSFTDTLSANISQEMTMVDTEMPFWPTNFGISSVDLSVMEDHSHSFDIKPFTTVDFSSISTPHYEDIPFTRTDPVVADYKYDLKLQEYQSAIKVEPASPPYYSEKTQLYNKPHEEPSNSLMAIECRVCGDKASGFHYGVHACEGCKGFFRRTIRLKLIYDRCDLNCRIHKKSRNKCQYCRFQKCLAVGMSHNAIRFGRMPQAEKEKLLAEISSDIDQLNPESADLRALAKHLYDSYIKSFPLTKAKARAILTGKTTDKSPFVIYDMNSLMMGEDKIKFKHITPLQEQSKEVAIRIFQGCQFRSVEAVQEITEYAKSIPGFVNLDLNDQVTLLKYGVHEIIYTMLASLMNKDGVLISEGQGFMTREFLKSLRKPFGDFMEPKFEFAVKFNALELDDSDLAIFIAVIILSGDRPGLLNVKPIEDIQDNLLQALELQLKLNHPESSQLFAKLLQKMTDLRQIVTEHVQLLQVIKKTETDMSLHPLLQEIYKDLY
# [2] = target: T1, Peroxisome proliferator-activated receptor gamma (Homo sapiens); assay: Agonist activity at N-terminal GFP-fused PPARgamma LBD (unknown origin) assessed as biotin-labeled CBP recruitment incubated for 2 hrs by HT-FRET assay
# [3] = target: T2, Peroxisome proliferator-activated receptor gamma (Mus musculus) (UniProt P37238); assay: Agonist activity at PPARgamma in mouse 3T3L1 adipocytes assessed as induction of CD36 mRNA expression at 1 uM by qRT-PCR analysis; assay type: cell-based; conditions: 3T3-L1
# T2 sequence (whole entry): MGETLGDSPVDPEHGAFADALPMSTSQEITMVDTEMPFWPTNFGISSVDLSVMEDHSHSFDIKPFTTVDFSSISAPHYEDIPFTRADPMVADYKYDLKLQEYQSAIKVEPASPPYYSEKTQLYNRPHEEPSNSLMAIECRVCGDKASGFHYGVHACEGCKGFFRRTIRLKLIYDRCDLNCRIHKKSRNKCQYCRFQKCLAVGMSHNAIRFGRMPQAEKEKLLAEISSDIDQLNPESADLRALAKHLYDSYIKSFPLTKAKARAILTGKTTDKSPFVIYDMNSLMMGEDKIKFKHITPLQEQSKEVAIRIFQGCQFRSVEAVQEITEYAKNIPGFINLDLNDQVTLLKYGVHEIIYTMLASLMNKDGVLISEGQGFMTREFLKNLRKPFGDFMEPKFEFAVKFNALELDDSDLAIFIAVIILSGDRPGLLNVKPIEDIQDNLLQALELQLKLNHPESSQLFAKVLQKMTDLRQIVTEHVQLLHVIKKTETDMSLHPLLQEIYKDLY
# [4] = target: T1, Peroxisome proliferator-activated receptor gamma (Homo sapiens); assay: Agonist activity at PPARgamma in human HepG2 cells with THRA knockdown assessed as induction of CD36 expression at 1 uM incubated for 8 hrs in by Western blot analysis; assay type: cell-based
# [5] = target: T1, Peroxisome proliferator-activated receptor gamma (Homo sapiens); assay: Agonist activity at N-terminal GFP-fused PPARgamma LBD (unknown origin) assessed as biotin-labeled SRC-1 recruitment incubated for 2 hrs by HT-FRET assay relative to rosiglitazone
# [6] = target: T2, Peroxisome proliferator-activated receptor gamma (Mus musculus); assay: Agonist activity at PPARgamma in mouse 3T3L1 adipocytes assessed as induction of LPL mRNA expression at 1 uM by qRT-PCR analysis; assay type: cell-based; conditions: 3T3-L1
# [7] = Drug level in human serum by RIA; assay type: ADME, cell-free; conditions: read-out: Drug uptake
# [8] = target: T3, Retinoic acid receptor RXR-alpha (Homo sapiens, UniProt P19793); assay: Agonist activity at GFP RXRalpha LBD (unknown origin) assessed as biotin-labeled SRC-1 recruitment incubated for 2 hrs by HT-FRET assay
# T3 sequence (P19793 whole entry): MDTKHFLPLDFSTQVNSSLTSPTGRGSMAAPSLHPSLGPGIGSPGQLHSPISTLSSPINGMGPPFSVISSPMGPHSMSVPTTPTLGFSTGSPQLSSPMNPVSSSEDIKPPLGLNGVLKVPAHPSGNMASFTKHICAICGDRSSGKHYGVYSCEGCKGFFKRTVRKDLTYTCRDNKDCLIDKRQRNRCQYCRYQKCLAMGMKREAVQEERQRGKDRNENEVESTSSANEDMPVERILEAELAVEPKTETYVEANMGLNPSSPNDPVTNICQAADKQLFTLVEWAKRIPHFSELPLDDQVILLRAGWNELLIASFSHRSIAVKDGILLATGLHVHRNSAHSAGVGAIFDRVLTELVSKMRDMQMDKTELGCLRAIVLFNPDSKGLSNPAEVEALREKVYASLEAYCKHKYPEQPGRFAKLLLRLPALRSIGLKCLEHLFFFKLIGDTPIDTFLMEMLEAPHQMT
# Homo sapiens = species on record: Homo sapiens; assay: Agonist activity at PPARgamma LBD (unknown origin)/GFP-tagged RXRalpha mutant (unknown origin) assessed as biotin-labeled CBP recruitment to […]:RXRalpha mutant fusion protein heterodimer incubated for 2 hrs by HT-FRET assay
# [9] = target: T2, Peroxisome proliferator-activated receptor gamma (Mus musculus); assay: Agonist activity at PPARgamma in mouse 3T3L1 adipocytes assessed as induction of adiponectin mRNA expression at 1 uM by qRT-PCR analysis; assay type: cell-based; conditions: 3T3-L1
# [10] = target: T1, Peroxisome proliferator-activated receptor gamma (Homo sapiens); assay: Agonist activity at PPARgamma in human HepG2 cells without THRB knockdown assessed as induction of CD36 expression at 1 uM incubated for 8 hrs in by Western blot analysis; assay type: cell-based
# [11] = target: T4, Hepatocyte nuclear factor 4-alpha (Homo sapiens) (UniProt P41235); assay: Agonist activity at recombinant human pFA-CMV-fused HNF4alpha LBD expressed in HEK293T cells transfected with pFR-luciferase plasmid and pRL-SV40 plasmid at 1 uM incubated for 14 to 16 hrs by dual glo luciferase reporter gene assay; assay type: cell-based; conditions: HEK-293T
# T4 sequence (whole entry): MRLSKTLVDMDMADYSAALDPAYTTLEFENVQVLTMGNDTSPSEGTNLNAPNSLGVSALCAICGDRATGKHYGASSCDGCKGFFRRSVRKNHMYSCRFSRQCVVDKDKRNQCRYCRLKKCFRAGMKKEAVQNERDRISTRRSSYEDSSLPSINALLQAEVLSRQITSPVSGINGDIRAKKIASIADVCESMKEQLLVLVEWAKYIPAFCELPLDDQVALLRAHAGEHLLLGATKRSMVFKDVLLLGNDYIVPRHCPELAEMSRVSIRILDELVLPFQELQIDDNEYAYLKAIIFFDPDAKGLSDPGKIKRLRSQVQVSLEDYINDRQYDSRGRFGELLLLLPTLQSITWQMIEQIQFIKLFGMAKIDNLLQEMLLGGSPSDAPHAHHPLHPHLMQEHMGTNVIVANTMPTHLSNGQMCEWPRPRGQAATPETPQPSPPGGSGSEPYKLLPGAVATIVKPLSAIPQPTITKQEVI
# [12] = target: T1, Peroxisome proliferator-activated receptor gamma (Homo sapiens); assay: Agonist activity at N-terminal GFP-fused PPARgamma LBD (unknown origin) assessed as biotin-labeled SRC-1 recruitment incubated for 2 hrs by HT-FRET assay
# [13] = target: T2, Peroxisome proliferator-activated receptor gamma (Mus musculus); assay: Agonist activity at PPARgamma in mouse 3T3L1 adipocytes assessed as induction of GLUT4 mRNA expression at 1 uM by qRT-PCR analysis; assay type: cell-based; conditions: 3T3-L1
Activity [1],Activity [2],Activity [3],Activity [4],Activity [5],Activity [6],concentration [7],EC50 [8],Activity (Homo sapiens),Activity [9],Activity [10],Activity [11],Activity [12],Activity [13],SMILES
inactive,,,,,,,,,,,,,,N[C@@H](Cc1cc(I)c(Oc2cc(I)c(O)c(I)c2)c(I)c1)C(=O)O [LEVOTHYROXINE]
,Active,Active,Active,Active,Active,1.6 nM,4.6 µM,Active,Active,Active,Active,Active,Active,O=C(O)Cc1cc(I)c(Oc2cc(I)c(O)c(I)c2)c(I)c1 [TETRAC]
